Laboratory results as given in the NIST ThermoML archive (doi:10.1016/j.fluid.2015.04.021).
Numbers after ± are expanded uncertainties.

What was measured:
[1] = cn = amount concentration of the nth substance listed, in mol/dm3; conditions: 101.3 kPa, Liquid, Falling or rolling sphere viscometry, c2 = 0
[2] = Liquid; for viscosity: Falling or rolling sphere viscometry; for mass density: Vibrating tube method

O [water] + O=C([O-])[C@@H]1CCCN1.[K+]
[1]
Conditions	viscosity [mPa·s]
298.15 K	0.8908 ± 0.14
303.15 K	0.799 ± 0.13
308.15 K	0.722 ± 0.12
313.15 K	0.6564 ± 0.11
318.15 K	0.6009 ± 0.096

NCCO [2-aminoethan-1-ol]
[2], 101.33 kPa
Conditions	mass density [kg/m3]	viscosity [mPa·s]
303.15 K	1007.7 ± 8	14.61 ± 2.3
313.15 K	999.8 ± 8	9.724 ± 1.6
323.15 K	991.7 ± 8	6.807 ± 1.1
333.15 K	983.7 ± 8	4.97 ± 0.8
343.15 K	975.5 ± 8	3.784 ± 0.61

O [water] + NCCCC[C@H](N)C(=O)[O-].[K+]
[1]
Conditions	viscosity [mPa·s]
298.15 K	0.8908 ± 0.14
303.15 K	0.799 ± 0.13
308.15 K	0.722 ± 0.12
313.15 K	0.6564 ± 0.11
318.15 K	0.6009 ± 0.096

O [water]
[2], 101.3 kPa
Conditions	viscosity [mPa·s]
293.15 K	1.002 ± 0.16
298.15 K	0.8908 ± 0.14
303.15 K	0.799 ± 0.13
308.15 K	0.722 ± 0.12
313.15 K	0.6564 ± 0.11
318.15 K	0.6009 ± 0.096
